Measurements: ChEMBL document CHEMBL1135924, “Structure-based design and synthesis of 2-benzylidene-benzofuran-3-ones as flavopiridol mimics” (J Med Chem, 2002)

How the values were obtained:
[1] = molecular target: Vascular endothelial growth factor receptor 2 (Homo sapiens) (UniProt P35968); assay: Inhibition of Vascular endothelial growth factor receptor 2 (VEGF-KDR) at 10 uM
[2] = molecular target: Cyclin-dependent kinase 2 (Homo sapiens, UniProt P24941); assay: Inhibition of cyclin A activated Cyclin-dependent kinase 2 (CDK2)
[3] = molecular target: Glycogen synthase kinase-3 (Homo sapiens, UniProt P49840+P49841); assay: inhibition of Glycogen synthase kinase-3; type: protein assay
[4] = molecular target: Epidermal growth factor receptor (Homo sapiens) (UniProt P00533); assay: Inhibition of Epidermal growth factor receptor at 10 uM
Sequence of Epidermal growth factor receptor (Homo sapiens) (P00533 whole entry): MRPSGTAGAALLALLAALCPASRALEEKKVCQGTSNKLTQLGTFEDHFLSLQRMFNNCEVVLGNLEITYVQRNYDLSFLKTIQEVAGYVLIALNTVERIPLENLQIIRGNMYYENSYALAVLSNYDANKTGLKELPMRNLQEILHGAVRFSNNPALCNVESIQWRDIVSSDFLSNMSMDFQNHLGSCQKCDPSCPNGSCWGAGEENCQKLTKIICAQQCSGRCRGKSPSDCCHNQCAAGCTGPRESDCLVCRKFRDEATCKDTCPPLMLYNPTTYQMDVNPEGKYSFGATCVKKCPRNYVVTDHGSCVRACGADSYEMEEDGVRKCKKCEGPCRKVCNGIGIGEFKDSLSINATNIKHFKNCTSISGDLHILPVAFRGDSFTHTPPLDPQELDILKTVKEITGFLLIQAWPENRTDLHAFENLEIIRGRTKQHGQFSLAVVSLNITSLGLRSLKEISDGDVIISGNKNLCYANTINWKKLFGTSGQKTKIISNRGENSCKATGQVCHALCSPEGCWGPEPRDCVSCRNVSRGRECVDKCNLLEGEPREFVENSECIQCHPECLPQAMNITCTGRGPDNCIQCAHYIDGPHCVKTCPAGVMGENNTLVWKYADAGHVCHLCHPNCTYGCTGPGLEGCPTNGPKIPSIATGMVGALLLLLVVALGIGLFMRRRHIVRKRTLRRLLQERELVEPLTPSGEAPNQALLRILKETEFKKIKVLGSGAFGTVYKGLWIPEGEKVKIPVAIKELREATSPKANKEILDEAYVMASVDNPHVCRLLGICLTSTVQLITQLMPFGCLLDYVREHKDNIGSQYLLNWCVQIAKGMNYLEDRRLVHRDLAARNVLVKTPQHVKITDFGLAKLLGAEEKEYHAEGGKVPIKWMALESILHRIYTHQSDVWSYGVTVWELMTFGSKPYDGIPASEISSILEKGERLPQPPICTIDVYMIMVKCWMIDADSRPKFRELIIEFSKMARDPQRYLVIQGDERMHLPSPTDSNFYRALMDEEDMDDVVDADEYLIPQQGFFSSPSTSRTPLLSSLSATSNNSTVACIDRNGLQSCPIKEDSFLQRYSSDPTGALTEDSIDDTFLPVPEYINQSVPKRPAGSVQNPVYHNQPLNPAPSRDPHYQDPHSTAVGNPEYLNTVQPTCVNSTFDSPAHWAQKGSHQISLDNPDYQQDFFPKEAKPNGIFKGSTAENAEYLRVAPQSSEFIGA

[5] = molecular target: Cyclin-dependent kinase 1 (Homo sapiens, UniProt P06493); assay: Inhibition of cyclin B activated Cyclin-dependent kinase 1 (CDK1)
Sequence of Cyclin-dependent kinase 1 (P06493 whole entry): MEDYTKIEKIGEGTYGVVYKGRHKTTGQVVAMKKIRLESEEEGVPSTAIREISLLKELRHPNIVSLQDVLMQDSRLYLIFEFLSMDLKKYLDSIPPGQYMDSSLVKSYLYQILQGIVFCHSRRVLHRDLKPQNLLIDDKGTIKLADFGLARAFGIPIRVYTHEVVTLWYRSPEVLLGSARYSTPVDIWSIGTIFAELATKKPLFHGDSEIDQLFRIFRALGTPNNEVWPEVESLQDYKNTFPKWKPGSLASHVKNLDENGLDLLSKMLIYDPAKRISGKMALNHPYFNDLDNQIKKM

HCT-116 = assay: Inhibition of HCT116 (transformed colon) cell proliferation; type: functional, cell-based; details: Homo sapiens
[6] = molecular target: T1, Protein kinase C alpha type (Homo sapiens, UniProt P17252); assay: Inhibition of Protein kinase C alpha at 10 uM
[7] = molecular target: Cyclin-dependent kinase 4 (Homo sapiens, UniProt P11802); assay: Inhibition of cyclin D1 activated Cyclin-dependent kinase 4 (CDK4)
Sequence of Cyclin-dependent kinase 4 (P11802 whole entry): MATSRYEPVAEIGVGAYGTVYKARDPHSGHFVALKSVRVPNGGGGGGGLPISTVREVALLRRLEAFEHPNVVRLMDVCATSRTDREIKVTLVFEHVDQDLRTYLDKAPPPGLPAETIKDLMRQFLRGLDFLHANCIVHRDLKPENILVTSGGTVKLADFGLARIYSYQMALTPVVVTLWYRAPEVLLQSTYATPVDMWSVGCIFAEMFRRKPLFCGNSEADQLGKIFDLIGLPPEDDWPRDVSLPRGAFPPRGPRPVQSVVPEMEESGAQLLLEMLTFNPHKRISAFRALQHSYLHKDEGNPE

[8] = molecular target: T1, Protein kinase C alpha type; assay: Inhibition of Protein kinase C alpha

Sequence of Vascular endothelial growth factor receptor 2 (Homo sapiens) (P35968 whole entry): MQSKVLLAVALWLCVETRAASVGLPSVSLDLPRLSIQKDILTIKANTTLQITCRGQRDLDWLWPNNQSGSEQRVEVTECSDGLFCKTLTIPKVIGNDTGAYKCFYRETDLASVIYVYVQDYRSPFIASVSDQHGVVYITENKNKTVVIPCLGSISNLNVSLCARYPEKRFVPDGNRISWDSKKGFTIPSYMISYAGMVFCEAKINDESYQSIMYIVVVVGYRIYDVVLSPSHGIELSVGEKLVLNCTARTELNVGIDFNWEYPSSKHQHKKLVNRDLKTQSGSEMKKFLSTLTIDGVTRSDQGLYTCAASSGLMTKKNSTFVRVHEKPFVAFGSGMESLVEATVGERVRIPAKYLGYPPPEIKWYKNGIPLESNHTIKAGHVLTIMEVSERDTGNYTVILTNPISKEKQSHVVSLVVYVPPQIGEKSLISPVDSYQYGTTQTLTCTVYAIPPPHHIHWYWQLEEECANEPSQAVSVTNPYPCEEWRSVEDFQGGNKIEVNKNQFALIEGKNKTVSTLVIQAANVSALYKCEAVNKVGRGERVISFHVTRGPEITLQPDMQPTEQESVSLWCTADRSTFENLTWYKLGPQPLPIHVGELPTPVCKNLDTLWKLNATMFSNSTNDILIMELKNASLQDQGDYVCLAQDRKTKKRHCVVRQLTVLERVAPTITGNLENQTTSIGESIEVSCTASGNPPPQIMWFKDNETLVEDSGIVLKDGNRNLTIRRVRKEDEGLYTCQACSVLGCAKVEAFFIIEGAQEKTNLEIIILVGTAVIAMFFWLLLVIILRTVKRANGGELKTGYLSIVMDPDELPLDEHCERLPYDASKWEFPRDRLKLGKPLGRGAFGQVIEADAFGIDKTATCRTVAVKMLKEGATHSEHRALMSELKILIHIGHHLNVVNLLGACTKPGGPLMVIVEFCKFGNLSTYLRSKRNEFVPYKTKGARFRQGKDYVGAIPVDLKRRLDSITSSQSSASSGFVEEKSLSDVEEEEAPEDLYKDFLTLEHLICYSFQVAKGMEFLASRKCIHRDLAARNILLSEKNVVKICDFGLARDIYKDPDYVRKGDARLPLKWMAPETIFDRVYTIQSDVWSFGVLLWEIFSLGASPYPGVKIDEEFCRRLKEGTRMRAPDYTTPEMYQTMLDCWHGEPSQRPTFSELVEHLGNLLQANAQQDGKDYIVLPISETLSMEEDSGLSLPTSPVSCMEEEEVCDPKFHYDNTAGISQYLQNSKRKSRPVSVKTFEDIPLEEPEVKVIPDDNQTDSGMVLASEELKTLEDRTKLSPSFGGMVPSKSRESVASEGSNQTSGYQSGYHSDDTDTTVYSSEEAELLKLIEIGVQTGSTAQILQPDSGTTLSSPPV

Row | Compound | inhibition [1] | IC50 [2] | IC50 [3] | inhibition [4] | IC50 [5] | IC50 (HCT-116) | inhibition [6] | IC50 [7] | IC50 [8]
1 | CN1CCC(c2c(O)cc(O)c3c2O/C(=C\c2ccc(S(N)(=O)=O)cc2)C3=O)CC1 | 25% | 30 nM | 3700 nM | 36% | 9 nM | > 50000 nM | 42% | 1870 nM | –
2 | CN1CCC(c2c(O)cc(O)c3c2O/C(=C\c2ccccc2Cl)C3=O)CC1 | 17% | 3970 nM | 10000 nM | – | 600 nM | 20100 nM | 22% | 25300 nM | –
3 | CN1CCC(c2c(O)cc(O)c3c2O/C(=C\c2ccccc2)C3=O)CC1 | 2% | 1280 nM | 4200 nM | 38% | 110 nM | > 50000 nM | 19% | 4410 nM | –
4 | CN1CCC(c2c(O)cc(O)c3c2O/C(=C\c2ccc([N+](=O)[O-])cc2)C3=O)CC1 | 37% | 310 nM | 4800 nM | 43% | – | 35600 nM | – | 2210 nM | 22000 nM
5 | CN1CCC(c2c(O)cc(O)c3c2O/C(=C\c2ccc(N4CCN(C)CC4)cc2)C3=O)CC1 | 25% | 2980 nM | 1750 nM | 29% | 800 nM | 24800 nM | 21% | 1920 nM | –
